No end group written: not given here.
How the values were obtained:
[1] = system: COMMD4; assay: FLAG pull-down in control and COMMD4 siRNA depleted cells; format: binding; settings: overexpressed FLAG-H2B after control or COMMD4 siRNA
Experimental: (§1) For siRNA transfections, cells were transfected with negative control or COMMD4 siRNA #2 (CCAUGUCCCUCUCAGCAGA[dT][dT] MISSION® siRNA, Sigma-Aldrich) using RNAiMax (Life Technologies) as previously described and samples were analysed 48 to 72 h post-transfection. The H2B wild-type (FLAG-H2BWT) and mutant (FLAG-H2BMUT1) expression constructs were generated with the 10-amino acid peptide and the corresponding mutant cloned into the expression vector pCDNA3.1/(+)-N-DYK containing an N-terminal FLAG tag and a C-terminal nuclear localisation signal (AAKRVKLDS) (GenScript). A70K FLAG-COMMD4 expression construct was generated by mutating the corresponding COMMD4-FLAG construct to harbour an A70K mutation (GenScript). Cells were mock-transfected, or transfected with FLAG-H2BWT/FLAG-H2BMUT1, or COMMD4-FLAG/A70K with FuGENE® HD (Promega) using the manufacturer’s protocol and analysed 24 h post-transfection.
Co-immunoprecipitations were performed as previously summarised, using ice-cold NP40 buffer. Assays for co-immunoprecipitations were performed at 4 °C from HEK293T, transiently expressing the FLAG-H2B WT or MUT plasmid. Proteins were captured using anti-FLAG M2 Dynabeads (ThermoFisher) and washed three times in NP40 buffer prior to analysis.
To support predicted models, we next designed peptides to perform mapping. […]

[2] = system: H460, H1299 and CRL5889 NSCLC cells; assay: Clonogenic cell viability after IR, NSCLC cells; format: cell-based; settings: varying IR doses, 7–10 days recovery, three independent experiments, compared to control siRNA or FLAG-H2BMUT1/mock
Experimental: (§2) H1299, CRL5889 and H460 cells were cultured in Roswell Park Memorial Institute (RPMI) 1640 medium (Life Technologies) containing 10% foetal bovine serum (Thermo Fisher Scientific). Human bronchial epithelial cells (HBEC3-KT) were maintained in keratinocyte serum-free medium supplemented with epidermal growth factor and bovine pituitary extract (Life Technologies). The histology features and origin of all cell lines used have been previously described. Cell lines were authenticated using STR profiling. Cells were grown in a humidified incubator at 37 °C/5% CO2 atmosphere. All cell lines were verified to be free of mycoplasma contamination.
(§3) Irradiations were done at room temperature using a ^137Cs source (Gammacell 40 Exactor [MDS Nordion]; dose rate 1.1 Gy/min). Phalloidin-Atto 488 was purchased from Sigma-Aldrich and Hoechst 33342 was purchased from Thermo Fisher Scientific.
(§4) For siRNA transfections, cells were transfected with negative control or COMMD4 siRNA #2 (CCAUGUCCCUCUCAGCAGA[dT][dT] MISSION® siRNA, Sigma-Aldrich) using RNAiMax (Life Technologies) as previously described and samples were analysed 48 to 72 h post-transfection. […] Cells were mock-transfected, or transfected with FLAG-H2BWT/FLAG-H2BMUT1, or COMMD4-FLAG/A70K with FuGENE® HD (Promega) using the manufacturer’s protocol and analysed 24 h post-transfection. […]

[3] = system: HBEC3-KT cells; assay: Clonogenic cell viability after IR, HBEC3-KT cells; format: cell-based, Human; settings: varying IR doses, 7–10 days recovery, three independent experiments
Experimental: as §2, §3, §4

[4] = system: HBEC3-KT cells; assay: CellTiter-Glo 2.0 luminescent cell viability after IR, HBEC3-KT cells; format: cell-based, Human; settings: CellTiter-Glo 2.0, 48 h post-irradiation, three independent experiments
Experimental: as §2
Irradiations were done at room temperature using a ^137Cs source (Gammacell 40 Exactor [MDS Nordion]; dose rate 1.1 Gy/min). […]
For siRNA transfections, cells were transfected with negative control or COMMD4 siRNA #2 (CCAUGUCCCUCUCAGCAGA[dT][dT] MISSION® siRNA, Sigma-Aldrich) using RNAiMax (Life Technologies) as previously described and samples were analysed 48 to 72 h post-transfection. […] Cells were mock-transfected, or transfected with FLAG-H2BWT/FLAG-H2BMUT1, or COMMD4-FLAG/A70K with FuGENE® HD (Promega) using the manufacturer’s protocol and analysed 24 h post-transfection.
A CellTiter-Glo 2.0 Luminescent assay (Promega Corporation) was carried out as previously described. […] Luminescence was measured using a PHERAstar FSX detection system (BMG Labtech). […]

[5] = system: HBEC3-KT cells; assay: Mitotic catastrophe (emerin and phalloidin staining), HBEC3-KT cells; format: cell-based, Human; settings: 100 cells counted
Experimental: as §1, with “A70K FLAG-COMMD4 expression construct was generated by mutating the corresponding COMMD4-FLAG construct to harbour an A70K mutation (GenScript).” left out
NSCLC cells were grown in 96-well plates as above and stained with anti-emerin antibody and phalloidin. Mitotic catastrophe was scored as previous. A minimum of 100 cells for each experimental condition were assessed to determine the percentage of aberrant nuclei.
As previously determined, in this study, we used two markers to determine mitotic catastrophe: emerin staining of the nuclear envelope and phalloidin staining of the F-actin cytoskeleton. […] We subsequently measured apoptosis by staining for Annexin V and propidium iodide via flow cytometry in FLAG-H2B WT, FLAG-H2BMUT1 and mock-transfected control and NSCLC cells (Fig. 5c, d). […]

FLAG-H2BWT: 10-amino acid peptide cloned into expression vector containing an N-terminal FLAG tag and a C-terminal nuclear localisation signal ({FLAG}-SFVNDIFERIAAKRVKLDS)
binding to COMMD4 in control or COMMD4 siRNA-depleted cells [1]: binding to COMMD4 was only possible in control siRNA-depleted cells | sensitivity to ionising radiation (clonogenic viability) [2]: resulted in a similar phenotype to COMMD4 siRNA depletion, albeit less pronounced, where hypersensitivity to IR was observed relative to cells expressing the mutant peptide (FLAG-H2BMUT1) | sensitivity to ionising radiation (clonogenic viability) [3]: neither hypersensitive to IR | sensitivity to ionising radiation (luminescent viability) [4]: not hypersensitive | aberrant nuclei / mitotic catastrophe [5]: also underwent mitotic catastrophe, but to a lesser extent than the NSCLC cell lines

— article PMC10703884, “Targeting the COMMD4–H2B protein complex in lung cancer” (British Journal of Cancer, 2023)
